Reference: patent US4073938A, “19,20-Bis-nor-prostenoic acids as hypolipemic compounds” (Istituto Biochimico Italiano di Loredana Lorenzini S.a.s., priority 1974, dated 1978)
Counter-ions that a name gives are not always drawn.

Tested on: ulcer induced by aspirin
Experiment: Anti-ulcerous activity, ulcer from aspirin (9-hydroxy sodium salt)
Format: in vivo, Female rats of the Wistar stock
Conditions: for Ulcer scale (x ± Sx): controls 18.67 ± 3.11
Method: Also in this case the anti-ulcerous activity is tested on an ulcer induced by aspirin and by phenylbutazone. In both cases lesions of various sizes are formed in the glandular section of the stomach.
Female rats of the Wistar stock weighing 150-175 g are used. 24 hours before the start of the test the animals are made to fast, while they are allowed water at will.
Each test group consists of 12 animals. The aspirin is administered orally as a suspension (45 mg/ml of 0.5% carboxymethyl cellulose suspension, 1 ml per animal). The substance in question is administered 10 minutes before the administration of aspirin, and 21/2 hours after, each time in doses of […] of 100 mg/kg × 10 ml of distilled water. The animals are killed 5 hours after the administration of aspirin, the stomachs are extracted and with a stereomicroscope the number and size of the lesions is evaluated.

CCCCCCC1CCC(O)C1CCCCCCC(=O)O (stereo not drawn) [Compound C83, 9-hydroxy-19,20-bis-nor-prostanoic acid sodium salt]
Ulcer scale (x ± Sx) (2 × 10 mg/kg, p<0.001): 4.83 ± 1.09 | Ulcer scale (x ± Sx) (2 × 100 mg/kg, p<0.05): 8.92 ± 1.91 | mitigation of ulcerating effect of aspirin (in words) (both doses): considerably mitigates the ulcerating effect of aspirin
